These molecules were tested on IL-1β production in PMA-differentiated THP-1 cells (assay: IL-1β production in PMA-differentiated THP-1 cells stimulated with gramicidin (hTHP-1 assay containing 2% fetal bovine serum)). Settings: Homo sapiens, THP-1, Table B1; 2% fetal bovine serum; cells printed as numeric bound; read-out: hTHP-1 IC50 (Average IC50 of compounds in hTHP-1 assay).
Type: cell-based, human
Method in brief: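 IL-1β release was read by HTRF on supernatants of 50,000 PMA-primed (20 ng/ml, 16-18 h) THP-1 cells/well in 2% FBS medium. Cells saw compound for 1 h (11-point titration from 100 μM, 0.37% DMSO) before a 2 h gramicidin (5 μM) challenge.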

Row | IC50 [µM] | Structure (SMILES)
1 | > 30 | CC(C)c1cc2c(c(C(C)C)c1CC(=O)N=[S@@](N)(=O)c1cnc(C(C)(C)O)s1)COC2(C)C [Example 340, (R)-N-(amino(2-(2-hydroxypropan-2-yl)thiazol-5-yl)(oxo)-λ^6-sulfaneylidene)-2-(4,6-diisopropyl-1,1-dimethyl-1,3-dihydroisobenzofuran-5-yl)acetamide]

Same assay, conditions: Homo sapiens, THP-1, Table B1; 2% fetal bovine serum; class symbols; read-out: hTHP-1 IC50 (Average IC50 of compounds in hTHP-1 assay)

Row | Structure (SMILES) | IC50 [µM]
2 | CCc1c2c(cc(C(C)C)c1CC(=O)N=S(N)(=O)c1cnc(C(C)(C)O)s1)COC2 (stereo not shown) [Example 259, N-(amino(2-(2-hydroxypropan-2-yl)thiazol-5-yl)(oxo)-λ^6-sulfaneylidene)-2-(4-ethyl-6-isopropyl-1,3-dihydroisobenzofuran-5-yl)acetamide] | 5 to 30
3 | CCc1cc2c(c(C(C)C)c1CC(=O)N=S(N)(=O)c1cnc(C(C)(C)O)s1)COC2 (stereo not shown) [Example 260, N-(amino(2-(2-hydroxypropan-2-yl)thiazol-5-yl)(oxo)-λ^6-sulfaneylidene)-2-(6-ethyl-4-isopropyl-1,3-dihydroisobenzofuran-5-yl)acetamide] | 5 to 30
4 | CC(C)c1cc2c(cnn2C)c(C(C)C)c1CC(=O)N=S(N)(=O)c1cnc(C(C)(C)O)s1 (stereo not shown) [Example 262, N-(amino(2-(2-hydroxypropan-2-yl)thiazol-5-yl)(oxo)-λ^6-sulfaneylidene)-2-(4,6-diisopropyl-1-methyl-1H-indazol-5-yl)acetamide] | 5 to 30
5 | CCc1cc2c(c(C(C)C)c1CC(=O)N=S(N)(=O)c1sc(C(C)(C)O)cc1F)COC2 (stereo not shown) [Example 263, N-(amino(3-fluoro-5-(2-hydroxypropan-2-yl)thiophen-2-yl)(oxo)-λ^6-sulfaneylidene)-2-(6-ethyl-4-isopropyl-1,3-dihydroisobenzofuran-5-yl)acetamide] | 1 to 5
6 | CCc1c2c(cc(C(C)C)c1CC(=O)N=S(N)(=O)c1sc(C(C)(C)O)cc1F)COC2 (stereo not shown) [Example 264, N-(amino(3-fluoro-5-(2-hydroxypropan-2-yl)thiophen-2-yl)(oxo)-λ^6-sulfaneylidene)-2-(4-ethyl-6-isopropyl-1,3-dihydroisobenzofuran-5-yl)acetamide] | 0.2 to 1
7 | CC(C)c1cc2c(c(C(C)C)c1CC(=O)N=S(N)(=O)c1cccc(C(C)(C)O)c1)COC2 (stereo not shown) [Example 266, N-(amino (3-(2-hydroxypropan-2-yl)phenyl)(oxo)-λ^6-sulfaneylidene)-2-(4,6-diisopropyl-1,3-dihydroisobenzofuran-5-yl)acetamide] | 1 to 5
8 | CC(C)c1cc2c(c(C(C)C)c1CC(=O)N=S(N)(=O)c1cnn3c1OCCC3)COC2 (stereo not shown) [Example 267, N-(amino(6,7-dihydro-5H-pyrazolo[5,1-b][1,3]oxazin-3-yl)(oxo)-λ^6-sulfaneylidene)-2-(4,6-diisopropyl-1,3-dihydroisobenzofuran-5-yl)acetamide] | 5 to 30
9 | CC(C)c1ccc(F)c(C(C)C)c1CC(=O)N=S(N)(=O)c1cnn2c1OCCC2 (stereo not shown) [Example 268, N-(amino(6,7-dihydro-5H-pyrazolo[5,1b][1,3]oxazin-3-yl)(oxo)-λ^6-sulfaneylidene)-2-(3-fluoro-2,6-diisopropylphenyl)acetamide] | 1 to 5
10 | CC(C)c1cc(-c2ccc3ccccc3c2)cc(C(C)C)c1CC(=O)N=[S@](=O)(NC#N)c1cnc(C(C)(C)O)s1 [Example 345, (S)-N-(cyanamido(2-(2-hydroxypropan-2-yl)thiazol-5-yl)(oxo)-λ^6-sulfaneylidene)-2-(2,6-diisopropyl-4-(naphthalen-2-yl)phenyl)acetamide] | 5 to 30

More lines, now with the values ahead:

Row | IC50 [µM] | Structure (SMILES)
11 | 0.2 to 1 | CC(C)c1cc(F)cc(C(C)C)c1CC(=O)N=[S@](=O)(NC#N)c1ncc(C(C)(C)O)s1 [Example 341, (S)—N-(cyanamido(5-(2-hydroxypropan-2-yl)thiazol-2-yl)(oxo)-λ^6-sulfaneylidene)-2-(4-fluoro-2,6-diisopropylphenyl)acetamide]
12 | 1 to 5 | CC(C)c1cc(F)cc(C(C)C)c1CC(=O)N=[S@@](=O)(NC#N)c1ncc(C(C)(C)O)s1 [Example 342, (R)-N-(cyanamido(5-(2-hydroxypropan-2-yl)thiazol-2-yl)(oxo)-λ^6-sulfaneylidene)-2-(4-fluoro-2,6-diisopropylphenyl)acetamide]
13 | 0.2 to 1 | CC(C)c1cc(-c2ccc3ccccc3c2)cc(C(C)C)c1CC(=O)N=[S@@](=O)(NC#N)c1cnc(C(C)(C)O)s1 [Example 346, (R)-N-(cyanamido(2-(2-hydroxypropan-2-yl)thiazol-5-yl)(oxo)-λ^6-sulfaneylidene)-2-(2,6-diisopropyl-4-(naphthalen-2-yl)phenyl)acetamide]

Same assay, conditions: Homo sapiens, THP-1, Table B2; 2% fetal bovine serum; cells printed as numeric bound; read-out: hTHP-1 IC50 (Average IC50 of compounds in hTHP-1 assay)

Row | IC50 [µM] | Structure (SMILES)
14 | > 30 | COc1cc(-c2cccc(C(C)C)c2CC(=O)N=S(=O)(NC(N)=O)c2cnc([C@@](C)(O)CO)s2)ccn1 (stereo partly drawn) [Example 354, N-((2-((S)-1,2-dihydroxypropan-2-yl)thiazol-5-yl)(oxo)(ureido)-λ^6-sulfaneylidene)-2-(2-isopropyl-6-(2-methoxypyridin-4-yl)phenyl)acetamide]
15 | > 30 | CC(C)c1cc(C#N)cc(C(C)C)c1CC(=O)N=[S@](=O)(NC#N)c1ncc(C(C)(C)O)s1 [Example 365]
16 | > 30 | CC(C)c1cc(C#N)c(F)c(C(C)C)c1CC(=O)N=[S@@](=O)(NC#N)c1cnc([C@](C)(O)CO)s1 [Example 370, N-((R)-cyanamido(2-((R)-1,2-dihydroxypropan-2-yl)thiazol-5-yl)(oxo)-λ^6-sulfaneylidene)-2-(4-cyano-3-fluoro-2,6-diisopropylphenyl)acetamide]

Same assay, conditions: Homo sapiens, THP-1, Table B2; 2% fetal bovine serum; class symbols; read-out: hTHP-1 IC50 (Average IC50 of compounds in hTHP-1 assay)

Row | Structure (SMILES) | IC50 [µM]
17 | CC(C)c1cc2c(c(C(C)C)c1CC(=O)N=S(N)(=O)c1ccn(CCO)n1)OC(F)(F)O2 (stereo not shown) [Example 347, N-(amino(1-(2-hydroxyethyl)-1H-pyrazol-3-yl)(oxo)-λ^6-sulfaneylidene)-2-(2,2-difluoro-4,6-diisopropylbenzo[d][1,3]dioxol-5-yl)acetamide] | 1 to 5
18 | CC(C)c1cc(C#N)c(F)c(C(C)C)c1CC(=O)N=S(N)(=O)c1cnc(C(O)(CO)CO)s1 (stereo not shown) [Example 350, N-(amino(oxo)(2-(1,2,3-trihydroxypropan-2-yl)thiazol-5-yl)-λ^6-sulfaneylidene)-2-(4-cyano-3-fluoro-2,6-diisopropylphenyl)acetamide] | 0.2 to 1
19 | CC(C)c1cc(C#N)c(F)c(C(C)C)c1CC(=O)N=S(=O)(NC#N)c1cnc(C(O)(CO)CO)s1 (stereo not shown) [Example 360, N-(cyanamido(oxo)(2-(1,2,3-trihydroxypropan-2-yl)thiazol-5-yl)-λ^6-sulfaneylidene)-2-(4-cyano-3-fluoro-2,6-diisopropylphenyl)acetamide] | 5 to 30
20 | CC(C)(O)c1ncc([S@@](=O)(=NC(=O)Cc2c3c(cc4c2CC4)CCC3)NC#N)s1 [Example 362, (R)-N-(cyanamido(2-(2-hydroxypropan-2-yl)thiazol-5-yl) (oxo)-λ^6-sulfaneylidene)-2-(2,4,5,6-tetrahydro-1H-cyclobuta [f]inden-3-yl)acetamide] | 1 to 5
21 | CC(C)(O)c1ncc([S@](=O)(=NC(=O)Cc2c3c(cc4c2CC4)CCC3)NC#N)s1 [Example 363, (S)-N-(cyanamido(2-(2-hydroxypropan-2-yl)thiazol-5-yl) (oxo)-λ^6-sulfaneylidene)-2-(2,4,5,6-tetrahydro-1H-cyclobuta [f]inden-3-yl)acetamide] | 0.2 to 1
22 | CC(C)c1cc(C#N)c(F)c(C(C)C)c1CC(=O)N=S(=O)(NC#N)c1cnc(C(O)CO)s1 (stereo not shown) [Example 372, N-(cyanamido(2-(1,2-dihydroxyethyl)thiazol-5-yl)(oxo)-λ^6-sulfaneylidene)-2-(4-cyano-3-fluoro-2,6-diisopropylphenyl)acetamide] | 5 to 30

Other lines, results leading:

Row | IC50 [µM] | Structure (SMILES)
23 | 1 to 5 | CC(C)c1cc2c(c(C(C)C)c1CC(=O)N=[S@](=O)(NC#N)c1cnc(C(C)(C)O)s1)COC2=O [Example 361, (S)-N-(cyanamido(2-(2-hydroxypropan-2-yl)thiazol-5-yl) (oxo)-λ^6-sulfaneylidene)-2-(4,6-diisopropyl-1-oxo-1,3-dihydroisobenzofuran-5-yl)acetamide]
24 | 0.2 to 1 | CC(C)c1cc(C#N)cc(C(C)C)c1CC(=O)N=[S@@](=O)(NC#N)c1ncc(C(C)(C)O)s1 [Example 364, (R)-N-(cyanamido(5-(2-hydroxypropan-2-yl)thiazol-2-yl) (oxo)-λ^6-sulfaneylidene)-2-(4-cyano-2,6-diisopropylphenyl) acetamide]
25 | 5 to 30 | CC(C)c1cc(C#N)cc(C(C)C)c1CC(=O)N=[S@@](=O)(NC#N)c1sc(C(C)(C)O)nc1CO [Example 366, (R)-N-(cyanamido(4-(hydroxymethyl)-2-(2-hydroxypropan-2-yl)thiazol-5-yl)(oxo)-λ^6-sulfaneylidene)-2-(4-cyano-2,6-diisopropylphenyl)acetamide]
26 | 0.04 to 0.2 | CC(C)c1cc(F)cc(C(C)C)c1CC(=O)N=[S@@](=O)(NC#N)c1sc(C(C)(C)O)nc1CO [Example 368, (R)-N-(cyanamido(4-(hydroxymethyl)-2-(2-hydroxypropan-2-yl)thiazol-5-yl)(oxo)-λ^6-sulfaneylidene)-2-(4-fluoro-2,6-diisopropylphenyl)acetamide]
27 | 5 to 30 | CC(C)c1cc(F)cc(C(C)C)c1CC(=O)N=[S@](=O)(NC#N)c1sc(C(C)(C)O)nc1CO [Example 369, (S)-N-(cyanamido(4-(hydroxymethyl)-2-(2-hydroxypropan-2-yl)thiazol-5-yl)(oxo)-λ^6-sulfaneylidene)-2-(4-fluoro-2,6-diisopropylphenyl)acetamide]
28 | 5 to 30 | CC(C)c1cc(C#N)cc(C(C)C)c1CC(=O)N=[S@](=O)(NC#N)c1sc(C(C)(C)O)nc1CCO [Example 373, (S)-N-(cyanamido(4-(2-hydroxyethyl)-2-(2-hydroxypropan-2-yl)thiazol-5-yl)(oxo)-λ^6-sulfaneylidene)-2-(4-cyano-2,6-diisopropylphenyl)acetamide]

Reference: patent US20230059136A1, “THE COMPOUNDS AND COMPOSITIONS FOR TREATING CONDITIONS ASSOCIATED WITH NLRP ACTIVITY” (Novartis AG, priority 2018, published 2023)
